Data taken from patent publication US10517861B2, “Biomarkers for predicting and assessing responsiveness of endometrial cancer subjects to lenvatinib compounds” (Eisai R&D Management Co., Ltd., priority 2013, dated 2019).

Tested on: patients with advanced or recurrent endometrial cancer (EC)
Test: Phase II study of E7080 in patients with advanced or recurrent endometrial cancer: tumor response (ORR) and survival (PFS, OS)
Format: in vivo, human
Procedure: Purpose: Angiogenesis is regulated by signaling through multiple growth factor receptors, such as VEGF receptor and FGF receptor. VEGF receptor signaling is also associated with immune cell function. E7080 is an oral angiogenesis inhibitor targeting multiple receptor tyrosine kinase; VEGFR1-3, FGFR1-4, RET, KIT, and PDGFRβ. A phase II study was performed in patients with advanced or recurrent endometrial cancer (EC) following 1 or 2 prior platinum-based treatments (Tx). The importance of angiogenesis in EC highlights the need to understand clinical mechanisms of escape from anti-angiogenic therapy. This clinical biomarker analysis was conducted to identify predictive markers of clinical benefit in EC patients upon E7080 treatment. Circulating cytokine and angiogenic factors (CAFs) can be measured in blood samples using ELISA and multiplex assay platforms. The CAFs examined in this study are listed below in Table 2. Numbers in parenthesis indicate bead region for each analyte.
The purpose of this analysis was to measure cytokine, chemokine and angiogenic factors in blood samples, such as plasma and serum, obtained from patients in clinical trials at both pre- and post-treatment with E7080 and to identify blood biomarkers which can be used to predict whether patients will respond to treatment with E7080. For these analyses, the following criteria of response were employed, namely:
(a) Tumor response: objective response rate (ORR) and % of maximum tumor shrinkage (MTS); and
(b) Survival Benefits: progression free survival (PFS)/overall survival (OS).
Materials and Methods: Patients who had metastatic/unresectable endometrial cancer after 1 or 2 prior platinum-based treatments received lenvatinib until disease progression or development of unmanageable toxicities. Patients received E7080 at a starting dose of 24 mg orally once daily in 28 day cycles. 133 patients were treated and evaluated for efficacy and molecular correlative analysis. This study was a part of the Phase 2 multicenter study of lenvatinib (ClinicalTrial.gov Identifier: NCT01111461). Baseline and post-treatment plasma samples were collected for molecular analyses. Plasma samples were collected at Cycle 1 Day 1 (pre-treatment) and Cycle 2 Day 1 (i.e., day […] post-treatment). Six mL of intravenous blood was drawn into EDTA vacutainer tubes. The tubes were gently inverted 6-8 times and then centrifuged at 3000 RPM for 10 minutes to separate the plasma from the red cell layer. Plasma was collected from the tube and dispensed into a 3.5 mL cryovial using a transfer pipette, and then stored immediately at −20° C. The plasma samples were shipped on dry ice and then ultimately transferred to −80° C. storage. Plasma samples from 122 patients were used for blood biomarker analysis. Serum from Cycle 1 day 1 (baseline), and cycle 2 day 1 were used in this analysis. The association of progression free survival (PFS) and overall survival (OS) were analyzed. Plasma samples were tested in batch format where all timepoints from the same subject were assayed on the same day. On the day of assay, samples were removed from −80° C. and allowed to thaw and reach room temperature. The plasma samples were tested in a panel of ELISA and multiplex kit as per the manufacturer's instructions. The ELISA plates were measured using a Molecular Devices UVmax kinetic microplate reader with SoftMax Pro 5.2 software. The multiplex assays were performed using the Bio-Rad Bio-Plex system with Bio-Plex Manager 4.1 software. Final protein concentrations (pg/mL) were calculated from the standard curve for each assay. Depending on the assay, plasma samples may have been diluted in assay buffer prior to testing. In these cases, protein concentrations were multiplied by the dilution factor.
A cut-off value of Ang-2 was used to test if patients with baseline Ang-2 levels have better clinical outcomes, such as ORR, PFS, and OS. […]

[1] = sub-group with high baseline Ang-2 (>2082 pg/ml), 98 patients
[2] = sub-group with low baseline Ang-2 (<2082 pg/ml), 24 patients
[3] = without stratification based on Ang-2 levels

Structure (SMILES): COc1cc2nccc(Oc3ccc(NC(=O)NC4CC4)c(Cl)c3)c2cc1C(N)=O [E7080, 4-(3-chloro-4-(cyclopropylaminocarbonyl)aminophenoxy)-7-methoxy-6-quinolinecarboxamide]
- mOS (day) in each quartile (baseline MIP-1a(64), 4th (high) quartile): 264 days
- Median PFS (baseline MIP-la(64), 0-25% subgroup): 210 days
- Median PFS (baseline MIP-la(64), 25-50% subgroup): 155 days
- Median PFS (baseline MIP-la(64), 50-75% subgroup): 117 days
- Median PFS (baseline MIP-la(64), 75-100% subgroup): 166 days
- Median PFS (baseline PGF(91), 0-25% subgroup): 170 days
- mOS (day) in each quartile (baseline PGF(91), 2nd quartile): 350 days
- mOS (day) in each quartile (baseline PGF(91), 3rd quartile): 393 days
- mOS (day) in each quartile (baseline PGF(91), 4th (high) quartile): 173 days
- Median PFS (baseline PGF(91), 25-50% subgroup): 174 days
- Median PFS (baseline PGF(91), 50-75% subgroup): 218 days
- Median PFS (baseline PGF(91), 75-100% subgroup): 77 days
- Median PFS (baseline TNFa(80), 0-25% subgroup): 282 days
- mOS (day) in each quartile (baseline TNFa(80), 1st (low) quartile): 654 days
- mOS (day) in each quartile (baseline TNFa(80), 2nd quartile): 353 days
- mOS (day) in each quartile (baseline TNFa(80), 3rd quartile): 393 days
- mOS (day) in each quartile (baseline TNFa(80), 4th (high) quartile): 218 days
- Median PFS (baseline TNFa(80), 25-50% subgroup): 117 days
- Median PFS (baseline TNFa(80), 50-75% subgroup): 166 days
- Median PFS (baseline TNFa(80), 75-100% subgroup): 112 days
- Median PFS (baseline Tie-2, 0-25% subgroup): 273 days
- mOS (day) in each quartile (baseline Tie-2, 1st (low) quartile): 541 days
- mOS (day) in each quartile (baseline Tie-2, 2nd quartile): 282 days
- mOS (day) in each quartile (baseline Tie-2, 3rd quartile): 291 days
- mOS (day) in each quartile (baseline Tie-2, 4th (high) quartile): 192 days
- Median PFS (baseline Tie-2, 25-50% subgroup): 165 days
- Median PFS (baseline Tie-2, 50-75% subgroup): 155 days
- Median PFS (baseline Tie-2, 75-100% subgroup): 112 days
- Median PFS (baseline VEGFA(100), 0-25% subgroup): 158 days
- mOS (day) in each quartile (baseline VEGFA(100), 1st (low) quartile): 350 days
- mOS (day) in each quartile (baseline VEGFA(100), 2nd quartile): 541 days
- mOS (day) in each quartile (baseline VEGFA(100), 3rd quartile): 365 days
- mOS (day) in each quartile (baseline VEGFA(100), 4th (high) quartile): 260 days
- Median PFS (baseline VEGFA(100), 25-50% subgroup): 205 days
- Median PFS (baseline VEGFA(100), 50-75% subgroup): 165 days
- Median PFS (baseline VEGFA(100), 75-100% subgroup): 83 days
- Median PFS (baseline sIL-2Ra(76), 0-25% subgroup): 210 days
- mOS (day) in each quartile (baseline sIL-2Ra(76), 1st (low) quartile): 562 days
- mOS (day) in each quartile (baseline sIL-2Ra(76), 2nd quartile): 295 days
- mOS (day) in each quartile (baseline sIL-2Ra(76), 3rd quartile): 387 days
- mOS (day) in each quartile (baseline sIL-2Ra(76), 4th (high) quartile): 161 days
- Median PFS (baseline sIL-2Ra(76), 25-50% subgroup): 161 days
- Median PFS (baseline sIL-2Ra(76), 50-75% subgroup): 177 days
- Median PFS (baseline sIL-2Ra(76), 75-100% subgroup): 72.5 days
- ORR (sub-group with high baseline Ang-2 (>2082 pg/ml)): 18%
- mean OS [1]: 8.9 months
- mean PFS [1]: 3.7 months
- ORR (sub-group with low baseline Ang-2 (<2082 pg/ml)): 61%
- mean OS [2]: 23 months
- mean PFS [2]: 9.5 months
- ORR [3]: 21.1%
- mOS [3]: 10.6 months
- mPFS [3]: 5.4 months
